Broadly, the AC50 is the concentration at which the activity in the assay is half-maximal.

Inconclusive results are not listed. The source made the active and inactive calls.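 How the source made its calls: active means compounds lowering signal with fitted half-maximal concentration within ten times the top tested dose in every test run; inconclusive means test runs disagree, or a run had a weak flat or poor fit; inactive means every test run inactive.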

For the first assay, the target named is Serine/threonine-protein kinase 33 (Homo sapiens) (UniProt Q9BYT3). The assay is described as follows: inhibition of purified STK33 phosphorylating MBP – biochemical, ADP-Glo luminescence, dry powder, dose response (AID 588632). Conditions: purified STK33, MBP phosphorylation. (ADP-Glo first removes unused ATP, then detects ADP through luciferase.)
Serine/threonine-protein kinase 33 (Homo sapiens), sequence (Q9BYT3 whole entry, looked up): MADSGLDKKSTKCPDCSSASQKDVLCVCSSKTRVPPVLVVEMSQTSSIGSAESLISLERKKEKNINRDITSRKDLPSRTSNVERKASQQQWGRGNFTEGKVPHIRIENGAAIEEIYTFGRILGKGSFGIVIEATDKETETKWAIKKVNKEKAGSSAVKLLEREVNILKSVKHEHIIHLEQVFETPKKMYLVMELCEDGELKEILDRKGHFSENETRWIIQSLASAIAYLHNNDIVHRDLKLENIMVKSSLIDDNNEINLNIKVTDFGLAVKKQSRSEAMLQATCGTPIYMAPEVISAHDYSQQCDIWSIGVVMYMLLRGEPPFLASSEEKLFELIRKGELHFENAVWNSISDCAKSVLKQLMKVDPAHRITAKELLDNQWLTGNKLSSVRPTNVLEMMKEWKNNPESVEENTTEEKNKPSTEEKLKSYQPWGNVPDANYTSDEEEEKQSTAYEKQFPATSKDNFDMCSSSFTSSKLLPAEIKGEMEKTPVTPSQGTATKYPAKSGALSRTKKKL
For the compound `COC(=O)c1ccc(COc2ccccc2/C=C/C(=O)c2ccc(OCC(=O)O)cc2)cc1`, the AC50 is 400 nM.
Regarding `COc1cc(N2CCN(C)CC2)ccc1Nc1ncc2c(n1)N(C)c1ccccc1C(=O)N2C`, the half-maximal activity concentration (AC50) is 1600 nM.
On to `COc1cc(C(=O)NC2CCN(C)CC2)ccc1Nc1ncc2c(n1)N(C1CCC(O)CC1)CCC(=O)N2C` (stereo not drawn), for which the AC50 is 1180 nM.
For `COc1cc(C(=O)N2CCC(N3CCN(C)CC3)CC2)ccc1Nc1ncc2c(n1)N(C)c1ccccc1C(=O)N2C`, the half-maximal activity concentration (AC50) is 6450 nM.
For the compound `CCOc1ccccc1C(=O)Nc1cc(Cl)ccc1O`, the AC50 is 1250 nM.
For the compound `CN1CCN(c2ccc(Nc3ncc4c(n3)N(C)c3ccccc3C(=O)N4C)cc2)CC1`, the AC50 was 1130 nM.
Same read-out and setting: next, `Nc1nc(-c2cc(O)ccc2[N+](=O)[O-])cc(-c2ccccc2)c1[N+](=O)[O-]`: 151 nM; `COc1cc(N2CCN(C)CC2)ccc1Nc1ncc2c(n1)N(C)c1sccc1C(=O)N2C`: 1560 nM.
Still for that read-out and setting: as for `COc1cc(N2CCN(C)CC2)ccc1Nc1ncc2c(n1)N(C1CCCC1)C(C)CC(=O)N2C` (stereo not drawn), the figure is 910 nM; as for `COc1cc(N2CCC(O)CC2)ccc1Nc1ncc2c(n1)N1CCc3cccc(c31)C(=O)N2C`, 509 nM; as for `COc1cc(N2CCC(N3CCN(C)CC3)CC2)ccc1Nc1ncc2c(n1)N1CCC[C@H]1CC(=O)N2C`, 1880 nM.
Regarding `CC(=O)N(C)c1ccc(N=Cc2c(O)ccc3ccccc23)cc1`, the AC50 was 1130 nM.
Consider `CC(C)n1cnc2c(Nc3cccc(Cl)c3)nc(NCCO)nc21`, for which the AC50 was 632 nM.
On to `O=C1NCCCc2c1oc1ccc(O)cc21`, for which the AC50 was 939 nM.
Turning to `COc1cc(N2CCC(N3CCN(C)CC3)CC2)ccc1Nc1ncc2c(n1)N(C1CCCC1)C(C)CC(=O)N2C` (stereo not drawn), the AC50 is 2200 nM.
Still for that read-out and setting: as for `Oc1ccc(Nc2nc(-c3ccccc3O)nc3ccccc23)cc1`, the figure is 811 nM; as for `COc1cc(/C=C2\SC(=Nc3ccccc3OC)NC2=O)ccc1O`, 314 nM.
As to `O=C1NC(=NCc2ccccc2)S/C1=C/c1ccc(O)cc1`, the AC50 was 522 nM.
In the case of `O=C(Nc1ccccc1-c1nc2ccccc2[nH]c1=O)c1cccs1`, the AC50 is 331 nM.
Same read-out and setting: next, `CC(Oc1ccc2c(c1)c1ccnc3c4ccccc4c(=O)n2c13)C(=O)NCCN1CCOCC1` (stereo not drawn): 168 nM; `COc1cc(/C=C2\SC(N)=NC2=O)ccc1O`: 574 nM.
Take `Cc1ncc(/C=C2\C(=O)Nc3ccccc32)[nH]1`: the half-maximal activity concentration (AC50) is 795 nM.
The same measure, in the same setting: as for `O=C(Nc1ccccc1-c1ccccc1)c1ccc(Br)o1`, the figure is 1580 nM; as for `CCCn1c(NC(=O)c2cccc(S(=O)(=O)N3CCCC3)c2)nc2ccccc21`, 122 nM.
Regarding `COc1cc(/C=N/n2c(-c3ccccc3)n[nH]c2=S)ccc1O`, the AC50 was 695 nM.
For `COc1cc(N2CCN(C)CC2)ccc1Nc1ncc2c(n1)N1CCC[C@H]1CC(=O)N2C`, the AC50 is 409 nM.

The assay is the same for the next values; noted with them: purified STK33, MBP phosphorylation, at 10 µM (top of the series).
As to `CCC(CO)Oc1cc(NC(=O)c2cccc(F)c2)c2ncn(C(C)C)c2c1` (stereo not drawn), the “activity change, negative = inhibition” value was “inactive”.
For the compound `CCC(CO)Oc1cc(NC(=O)c2cccc(C)c2)c2ncn(C(C)C)c2c1` (stereo not drawn), the “activity change, negative = inhibition” value is “inactive”.
For the compound `COCCCOc1cc(NCc2ccccc2)c2ncn(C(C)C)c2c1`, the “activity change, negative = inhibition” value was “inactive”.
Regarding `CCC(CO)Oc1cc(NC(=O)c2ccc(N)cc2)c2ncn(C(C)C)c2c1` (stereo not drawn), the “activity change, negative = inhibition” value is “inactive”.
The same measure, in the same setting: next, `CCC(CO)Oc1cc(NC(=O)c2ccc(OC)cc2)c2ncn(C(C)C)c2c1` (stereo not drawn): “inactive”; `CCC(CO)Oc1cc(NC(=O)c2ccccc2N)c2ncn(C(C)C)c2c1` (stereo not drawn): “inactive”.
`COc1cc(NCc2ccccc2)c2ncn(C(C)C)c2c1`: the “activity change, negative = inhibition” value was “inactive”.
With `CCC(CO)Oc1cc(NCc2ccccc2)c2ncn(C(C)C)c2c1` (stereo not drawn), the “activity change, negative = inhibition” value is “inactive”.
In the case of `CCC(CO)Oc1cc(NC(=O)c2cccc(Cl)c2)c2ncn(C(C)C)c2c1` (stereo not drawn), the “activity change, negative = inhibition” value was “inactive”.
As to `CCC(CO)Oc1cc(NC(=O)c2ccc(C)cc2)c2ncn(C(C)C)c2c1` (stereo not drawn), the “activity change, negative = inhibition” value was “inactive”.
Regarding `CCC(CO)Oc1cc(NC(=O)c2ccc(F)cc2)c2ncn(C(C)C)c2c1` (stereo not drawn), the “activity change, negative = inhibition” value was “inactive”.
Same read-out and setting: as for `CCC(CO)Oc1cc(NC(=O)c2cccc([N+](=O)[O-])c2)c2ncn(C(C)C)c2c1` (stereo not drawn), the entry is “inactive”.
Same read-out and setting: as for `CCC(CO)Oc1cc(NC(=O)c2ccccc2C)c2ncn(C(C)C)c2c1` (stereo not drawn), the entry is “inactive”; as for `CCC(CO)Oc1cc(NC(=O)c2ccccc2)c2ncn(C(C)C)c2c1` (stereo not drawn), “inactive”; as for `CCC(CO)Oc1cc(NC(=O)c2ccccc2OC)c2ncn(C(C)C)c2c1` (stereo not drawn), “inactive”.
Still for that read-out and setting: next, `CCC(CO)Oc1cc(NC(=O)c2cccc(OC)c2)c2ncn(C(C)C)c2c1` (stereo not drawn): “inactive”; `CCC(CO)Oc1cc(NCc2ccccc2)c2ncn(C3CCCC3)c2c1` (stereo not drawn): “inactive”; `CCC(CO)Oc1cc(NC(=O)c2cccc(N)c2)c2ncn(C(C)C)c2c1` (stereo not drawn): “inactive”.
With `CCC(CO)Oc1cc(NC(=O)c2ccc([N+](=O)[O-])cc2)c2ncn(C(C)C)c2c1` (stereo not drawn), the “activity change, negative = inhibition” value was “inactive”.
In the case of `CC(C)n1cnc2c(NCc3ccccc3)cc(OCCCN3CCOCC3)cc21`, the “activity change, negative = inhibition” value is “inactive”.
Turning to `CCC(CO)Oc1cc(NC(=O)c2ccccc2Cl)c2ncn(C(C)C)c2c1` (stereo not drawn), the “activity change, negative = inhibition” value is “inactive”.
For `CCC(CO)Oc1cc(NC(=O)c2ccc(Cl)cc2)c2ncn(C(C)C)c2c1` (stereo not drawn), the “activity change, negative = inhibition” value is “inactive”.

These data come from PubChem BioAssay AID588632 (Broad Institute, 2011).
